# PubChem BioAssay (NCI)
#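 1) Cells in 96-well plates. 2) Compound, 48 h, 5 concentrations. 3) Linear interpolation between surrounding doses. 4) Unreached endpoint = highest concentration. GI50: concentration for 50% inhibition of growth. TGI: concentration producing complete growth inhibition.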
# How the values were obtained:
# Experiment in all cases: DTP human tumour cell line panel, 48 h
# [1] = system: KM12 colon
# [2] = system: OVCAR-8 ovarian
# [3] = system: HCT-15 colon
# [4] = system: SF-295 CNS
# [5] = system: CCRF-CEM leukemia
# [6] = system: HL-60(TB) leukemia
# [7] = system: HT29 colon
# [8] = system: K-562 leukemia
# [9] = system: SN12C renal
# [10] = system: CAKI-1 renal
# [11] = system: OVCAR-3 ovarian
Compound,GI50 [1] [µM],TGI [1] [µM],GI50 [2] [µM],TGI [2] [µM],GI50 [3] [µM],TGI [3] [µM],GI50 [4] [µM],TGI [4] [µM],GI50 [5] [µM],TGI [5] [µM],GI50 [6] [µM],TGI [6] [µM],GI50 [7] [µM],GI50 [8] [µM],TGI [8] [µM],TGI [9] [µM],TGI [10] [µM],TGI [7] [µM],TGI [11] [µM]
O=C1c2ccccc2-c2c1c1ccccc1c(=O)n2CCCNCCNCCCn1c2c(c3ccccc3c1=O)C(=O)c1ccccc1-2,< 0.04,0.415,< 0.01,1.66,0.0831,0.56,0.0782,2.32,0.0142,0.498,3.51,> 100,< 0.01,< 0.0335,> 100,1.81,–,–,–
CCC12CCC[C@@]13C=C[C@H](O3)C(C)(C)C2=O (some centres not stated),–,–,–,> 100,–,> 100,–,> 100,–,> 100,–,> 100,–,–,> 100,> 100,> 100,> 100,> 100
CC1(C)N=C(/C(Cl)=[N+](/[O-])C(=O)c2ccc(Cl)cc2)C(C)(C)N1O,–,> 100,–,45.3,–,35.8,–,> 100,–,45.7,–,60.7,–,–,> 100,47,42.7,43,32.4
Cc1ccc(NC(=O)CC/C(CC(=O)C(C)(C)C)=N/NC(=O)c2cc3ccccc3cc2O)cc1C,–,> 100,–,> 100,–,> 100,–,> 100,–,70.1,–,> 100,–,–,–,> 100,> 100,> 100,> 100
